Data on two molecules can be found in patent publication EP4721753A1, “PHARMACEUTICAL COMPOSITION FOR PREVENTING OR TREATING CORONAVIRUS INFECTIOUS DISEASES COMPRISING CELL-PERMEABLE PEPTIDE-NUCLEIC ACID OLIGOMER AS ACTIVE INGREDIENT” (GiftedMS Co., Ltd., priority 2023, dated 2024).

Holding throughout (assay type): cell-based
One assay relates to HCoV-OC43. Nature of the assay: qRT-PCR evaluation of antiviral efficacy (viral RNA level in culture supernatant), HCT8 cells infected with HCoV-OC43. The note with it: 1 µM PNA oligomer; HCT8 cells infected with HCoV-OC43 at 500 TCID50; viral RNA from cell supernatant on Day 3 after infection. The method, then: In order to analyze the level of viral RNA in viral particles present in a virus culture solution to determine how well the constructed PNA oligomer-based drugs inhibit viral genetic replication, qRT-PCR was performed.
Specifically, HCT8 cells cultured in 6-well plates one day before for drug screening were infected with HCoV-OC43 at a dose of 500 TCID50 using a serum-free RPMI medium. At the same time as infection, the cells were also treated with 1 µM of PNA oligomer, and after 30 minutes, the cells were washed twice with serum-free RPMI, and then the medium was replaced with an RPMI-Complete medium (containing 10% FBS and 1% penicillin/streptomycin) and the cells were treated with 1 µM of PNA oligomer. On Day 3 after infection, viral RNA was extracted from 140 µL of the cell supernatant using a QIAamp viral RNA mini kit manufactured by Qiagen. Virus extraction was performed according to the kit manual. The viral titer of the extracted viral RNA was measured by real-time PCR using a One step TB green kit manufactured by Takara. The primers used are as follows. HCoV-OC43 primer; Nucleoprotein (NP) gene (5'-[…]-3', 5'-[…]-3'). Real-time PCR conditions are as follows. Temperature Stage 1: Reverse transcription 42°C 5 min, 95°C 10 sec, 1 Cycle. Stage 2: PCR reaction 95°C 5 sec, 60°C 34 sec, 35 Cycles. Stage 3: melting curve analysis 95°C 15 sec, 65°C 60 sec, 95°C 15 sec.
(In general: In qPCR the cycle at which signal appears reflects the starting amount.)

For the next assay, the system named is SARS-CoV-2. The settings on record: 1000 nM; Vero cells pre-incubated 2 hours; viral RNA 24 hours after infection.
In the next assay the test system is SARS-CoV-2 virus. The settings on record: Vero cells, 1000 to 0.49 nM, 2-fold dilution, viral RNA after 24 hours, three repeated experiments.

Values joined by “and” are separate entries in the source; they are usually repeats but may differ in a detail not shown here. Identical values can stand only once. Like-named read-outs stand apart in the source and are kept apart here.

For orientation: IC50 means the concentration that gives 50% inhibition.

As to `CC(C)(C)[C@H](NC(=O)C(F)(F)F)C(=O)N1C[C@H]2[C@@H]([C@H]1C(=O)N[C@H](C#N)C[C@@H]1CCNC1=O)C2(C)C` [PF07321332, Nirmatrelvir], the Inhibition% in the assay on HCoV-OC43 was found to be 97.98%.

In turn, Paxlovid showed an Inhibition% in the assay with SARS-CoV-2 of 96.03%. For the same molecule, the IC50 was 317 nM and 328 nM and 464 nM in the assay with SARS-CoV-2 virus; 317 nM in the assay with SARS-CoV-2 virus (listed as Paxlovid (P.C)-1); 328 nM in the assay on SARS-CoV-2 virus (listed as Paxlovid (P.C)-2); 464 nM in the assay on SARS-CoV-2 virus (listed as Paxlovid (P.C)-3).
